Patent US20220062240A1, “METHODS OF TREATING CANCER USING A CLK INHIBITOR” (BioSplice Therapeutics, Inc., priority 2018, published 2022)
Like-named read-outs stand apart in the source and are kept apart here.

Key:
Format in all cases: cell-based
[1] = system: BT-549; test: CellTiter-Glo Viability Assay, breast cancer; details: Homo sapiens, 96 h; BT-549, breast cancer, four days; read-out: EC50
[2] = system: CAMA1; test: CellTiter-Glo Viability Assay, breast cancer; details: Homo sapiens, CAMA-1, 96 h; CAMA1, breast cancer, four days; read-out: EC50
[3] = system: DU4475; test: CellTiter-Glo Viability Assay, breast cancer; details: Homo sapiens, DU-4475, 96 h; DU4475, breast cancer, four days; read-out: EC50
[4] = system: HCC1599; test: CellTiter-Glo Viability Assay, breast cancer; details: Homo sapiens, 96 h; HCC1599, breast cancer, four days; read-out: EC50
[5] = system: MCF7; test: CellTiter-Glo Viability Assay, breast cancer; details: Homo sapiens, 96 h; MCF7, breast cancer, four days; read-out: EC50
[6] = system: MDA-MB-231-Luc; test: CellTiter-Glo Viability Assay, breast cancer; details: Homo sapiens, 96 h; MDA-MB-231-Luc, breast cancer, four days; read-out: EC50
[7] = system: T47D; test: CellTiter-Glo Viability Assay, breast cancer; details: Homo sapiens, 96 h, breast cancer, four days, read-out: EC50
[8] = system: ZR-75-1; test: CellTiter-Glo Viability Assay, breast cancer; details: Homo sapiens, 96 h; ZR-75-1, breast cancer, four days; read-out: EC50
[9] = system: all 50 cell lines; test: CellTiter-Glo Viability Assay, average across all cell lines; details: Homo sapiens; across all 50 cell lines; read-out: average EC50 for inhibition of cancer cell proliferation
In short: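 Cancer cell lines of several tumour types plated at 300-3,000 cells/well and exposed to compound in duplicate for four days at 37° C, 5% CO2, with DMSO-treated controls. Viability read by CellTiter-Glo luminescence (ATP content); EC50 derived from dose-response curves.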

[10] = system: colorectal cancer (6 cell lines); test: CellTiter-Glo Viability Assay, colorectal cancer; details: Homo sapiens, inhibition of cancer cell proliferation
[11] = system: haematopoietic & lymphoid tumors (13 cell lines); test: CellTiter-Glo Viability Assay, haematopoietic & lymphoid tumors; details: Homo sapiens, inhibition of cancer cell proliferation
[12] = system: liver cancer (3 cell lines); test: CellTiter-Glo Viability Assay, liver cancer; details: Homo sapiens, inhibition of cancer cell proliferation
[13] = system: lung cancer (4 cell lines); test: CellTiter-Glo Viability Assay, lung cancer; details: Homo sapiens, inhibition of cancer cell proliferation
[14] = system: ovarian cancer (4 cell lines); test: CellTiter-Glo Viability Assay, ovarian cancer; details: Homo sapiens, inhibition of cancer cell proliferation
[15] = system: pancreatic cancer (8 cell lines); test: CellTiter-Glo Viability Assay, pancreatic cancer; details: Homo sapiens, inhibition of cancer cell proliferation
[16] = system: prostate cancer (5 cell lines); test: CellTiter-Glo Viability Assay, prostate cancer; details: Homo sapiens
[17] = SW480 cell line, read-out: Colorectal cancer, EC50 (μM) SW480
[18] = DND41, DND-41 cell line, read-out: Haematopoietic & Lymphoid tumors, EC50 (μM) DND-41
[19] = MV4-11, MV-4-11 cell line, read-out: Haematopoietic & Lymphoid tumors, EC50 (μM) MV-4-11
[20] = Rec1, REC-1 cell line, read-out: Haematopoietic & Lymphoid tumors, EC50 (μM) REC-1
[21] = SU-DHL-4, SUDHL4 cell line, read-out: Haematopoietic & Lymphoid tumors, EC50 (μM) SUDHL4
[22] = HL-60 cell line, read-out: Haematopoietic & Lymphoid tumors, EC50 (μM) HL-60
[23] = JM1 cell line, read-out: Haematopoietic & Lymphoid tumors, EC50 (μM) JM1
[24] = JURKAT, Clone E6-1 cell line, read-out: Haematopoietic & Lymphoid tumors, EC50 (μM) JURKAT, Clone E6-1
[25] = JeKo-1 cell line, read-out: Haematopoietic & Lymphoid tumors, EC50 (μM) JeKo-1
[26] = KASUMI-1 cell line, read-out: Haematopoietic & Lymphoid tumors, EC50 (μM) KASUMI-1
[27] = Loucy cell line, read-out: Haematopoietic & Lymphoid tumors, EC50 (μM) Loucy
[28] = MOLT-4 cell line, read-out: Haematopoietic & Lymphoid tumors, EC50 (μM) MOLT-4
[29] = TF-1 cell line, read-out: Haematopoietic & Lymphoid tumors, EC50 (μM) TF-1
[30] = TOLEDO cell line, read-out: Haematopoietic & Lymphoid tumors, EC50 (μM) TOLEDO
[31] = SNU-398, SNU398 cell line, read-out: Liver cancer, EC50 SNU398
[32] = HEPG2 cell line, read-out: Liver cancer, EC50 HEPG2
[33] = PLC/PRF/5 cell line, read-out: Liver cancer, EC50 PLC/PRF/5
[34] = A-427, A427 cell line, read-out: Lung cancer, EC50 (μM) A427
[35] = HCC78, HCC-78 cell line, read-out: Lung cancer, EC50 (μM) HCC-78
[36] = NCI-H460 cell line, read-out: Lung cancer, EC50 (μM) NCI-H460
[37] = NCI-H522 cell line, read-out: Lung cancer, EC50 (μM) NCI-H522
[38] = PA-1, PA1 cell line, read-out: Ovarian cancer, EC50 (μM) PA1
[39] = TOV112D, TOV-112D cell line, read-out: Ovarian cancer, EC50 (μM) TOV-112D
[40] = OV-90 cell line, read-out: Ovarian cancer, EC50 (μM) OV-90
[41] = OVCAR-3 cell line, read-out: Ovarian cancer, EC50 (μM) OVCAR-3
[42] = BXPC-3, BxPC3 cell line, read-out: Pancreatic cancer, EC50 BxPC3
[43] = CAPAN-1, Capan1 cell line, read-out: Pancreatic cancer, EC50 Capan1
[44] = Capan-2, Capan2 cell line, read-out: Pancreatic cancer, EC50 Capan2
[45] = MIA PaCa-2 cell line, read-out: Pancreatic cancer, EC50 MIA PaCa-2
[46] = PANC 05.04 cell line, read-out: Pancreatic cancer, EC50 PANC 05.04
[47] = PANC-1 cell line, read-out: Pancreatic cancer, EC50 PANC-1
[48] = UPAFII cell line, read-out: Pancreatic cancer, EC50 UPAFII
[49] = DU-145, read-out: Prostate cancer EC50 Du-145
[50] = PC-3, PC3 cell line, inhibition of cancer cell proliferation, read-out: Prostate cancer EC50 PC3
[51] = 22Rv1 cell line, inhibition of cancer cell proliferation, read-out: Prostate cancer EC50 22Rv1
[52] = LNCap clone FGC cell line, inhibition of cancer cell proliferation, read-out: Prostate cancer EC50 LNCap clone FGC
[53] = VCaP (Sigma) cell line, inhibition of cancer cell proliferation, read-out: Prostate cancer EC50 VCaP (Sigma)

For `Cc1n[nH]c2ccc(-c3cncc(N[C@H]4CC[C@H](O)CC4)n3)cc12` [Compound 65], the EC50 [1] was 414 nM, the EC50 [2] was 457 nM and the EC50 [3] was 114 nM. It also gave an EC50 [4] of 209 nM, an EC50 [5] of 989 nM and an EC50 [6] of 106 nM. The EC50 [7] was 886 nM, the EC50 [8] was 617 nM and the EC50 [9] was 615 nM. The EC50 [10, 17] was 0.456 µM, the EC50 [11, 18] was 0.635 µM and the EC50 [11, 19] was 0.008 µM. For the same compound, the EC50 [11, 20] was 0.085 µM, the EC50 [11, 21] was 0.309 µM and the EC50 [11, 22] was 1.01 µM. It also gave an EC50 [11, 23] of 0.319 µM, an EC50 [11, 24] of 0.78 µM and an EC50 [11, 25] of 0.243 µM. For the same compound, the EC50 [11, 26] was 0.184 µM, the EC50 [11, 27] was 0.576 µM and the EC50 [11, 28] was 0.715 µM. The EC50 [11, 29] was 0.392 µM, the EC50 [11, 30] was 0.141 µM and the EC50 [12, 31] was 132 nM. The EC50 [12, 32] was 667 nM, the EC50 [12, 33] was 1260 nM and the EC50 [13, 34] was 0.26 µM. The EC50 [13, 35] was 1.19 µM, the EC50 [13, 36] was 0.81 µM and the EC50 [13, 37] was 0.379 µM. It also gave an EC50 [14, 38] of 0.146 µM, an EC50 [14, 39] of 0.437 µM and an EC50 [14, 40] of 0.918 µM. For the same compound, the EC50 [14, 41] was 0.645 µM, the EC50 [15, 42] was 678 nM and the EC50 [15, 43] was 353 nM. It also gave an EC50 [15, 44] of 760 nM, an EC50 [15, 45] of 539 nM and an EC50 [15, 46] of 1280 nM. For the same compound, the EC50 [15, 47] was 1490 nM, the EC50 [15, 48] was 594 nM and the EC50 [16, 49] was 665 nM. It also gave an EC50 [16, 50] of 557 nM, an EC50 [16, 51] of 803 nM and an EC50 [16, 52] of 508 nM. It also gave an EC50 [16, 53] of 2940 nM.
`CN1CCN(c2cc(C(=O)Nc3cc4cc(-c5cnn(C)c5N)ccc4cn3)ccn2)CC1` [Compound 75] was tested, and the EC50 [1] was 169 nM, the EC50 [2] was 216 nM and the EC50 [3] was 123 nM. For the same compound, the EC50 [4] was 91 nM, the EC50 [5] was 483 nM and the EC50 [6] was 188 nM. The EC50 [7] was 246 nM, the EC50 [8] was 177 nM and the EC50 [9] was 167 nM. It also gave an EC50 ([10]; HCT-116, HCT116 cell line, read-out: Colorectal cancer, EC50 (μM) HCT116) of 0.102 µM, an EC50 ([10]; HT-29, HT29 cell line, read-out: Colorectal cancer, EC50 (μM) HT29) of 0.187 µM and an EC50 ([10]; SW-620, SW620 cell line, read-out: Colorectal cancer, EC50 (μM) SW620) of 0.067 µM. The EC50 ([10]; DLD-1 cell line, read-out: Colorectal cancer, EC50 (μM) DLD-1) was 0.141 µM, the EC50 ([10]; SW48 cell line, read-out: Colorectal cancer, EC50 (μM) SW48) was 0.051 µM and the EC50 [10, 17] was 0.143 µM. For the same compound, the EC50 [11, 18] was 0.154 µM, the EC50 [11, 19] was 0.042 µM and the EC50 [11, 20] was 0.045 µM. The EC50 [11, 21] was 0.155 µM, the EC50 [11, 22] was 0.449 µM and the EC50 [11, 23] was 0.044 µM. It also gave an EC50 [11, 24] of 0.333 µM, an EC50 [11, 25] of 0.046 µM and an EC50 [11, 26] of 0.119 µM. For the same compound, the EC50 [11, 27] was 0.142 µM, the EC50 [11, 28] was 0.162 µM and the EC50 [11, 29] was 0.225 µM. For the same compound, the EC50 [11, 30] was 0.046 µM, the EC50 [12, 31] was 34 nM and the EC50 [12, 32] was 130 nM. The EC50 [12, 33] was 301 nM, the EC50 [13, 34] was 0.114 µM and the EC50 [13, 35] was 0.19 µM. It also gave an EC50 [13, 36] of 0.196 µM, an EC50 [13, 37] of 0.079 µM and an EC50 [14, 38] of 0.12 µM. For the same compound, the EC50 [14, 39] was 0.108 µM, the EC50 [14, 40] was 0.256 µM and the EC50 [14, 41] was 0.067 µM. It also gave an EC50 [15, 42] of 284 nM, an EC50 [15, 43] of 152 nM and an EC50 [15, 44] of 289 nM. The EC50 [15, 45] was 84 nM, the EC50 [15, 46] was 138 nM and the EC50 [15, 47] was 251 nM. It also gave an EC50 [15, 48] of 83 nM, an EC50 [16, 49] of 208 nM and an EC50 [16, 50] of 159 nM. It also gave an EC50 [16, 51] of 113 nM, an EC50 [16, 52] of 305 nM and an EC50 [16, 53] of 333 nM.
